Measured values: US20220002288A1, “MONOBACTAM COMPOUNDS AND USE THEREFOR” (priority 2018, published 2022)
In brackets after ≈: the same amount, converted by molar mass. Where a name gives a salt, the structure may show the parent alone. Read-outs that look alike come from different tables or passages of the source.

What was measured:
[1] = Pharmacokinetics of the compounds in mice; type: in vivo, BALB/c mice; conditions: mouse, plasma, male BALB/c mice, single intravenous dose 2 mg/kg, plasma; for Vd: male, BALB/c, iv, 2 mg/kg
Description: Animals: male BALB/c mice, SPF grade, purchased from Changzhou Cavens Experimental Animal Co., Ltd.; 16-24 g, license number: SCXK (Su)2016-0010; 2 to 3 days of adaptation period were given before the experiment.
Instruments: API 4500 High Performance Liquid Chromatograph Coupled Triple Quadrupole Mass Spectrometer, and Analyst QS A01.01 Chromatography Workstation were both purchased from AB SCIEX of the United States; Milli-Q ultrapure water device was purchased from Millipore; CF16R XII desktop high-speed refrigerated centrifuge was purchased From Hitachi Company; Qilinbeier Vortex-5 oscillator was purchased from IKA Company of German; electric heating constant-temperature water bath was purchased from Changzhou Guohua Electric Appliance Co., Ltd.; electric pipette was purchased from Thermo Company of American; and microanalysis balance was purchased from Shanghai Mettler Co., Ltd.
2 mg of the test compound was weighed, added to physiological saline, vortexed for 2 min, and ultrasonicated for 3 min, to prepare a test solution with a concentration of 0.2 mg/mL for intravenous administration.
A single dose of 2 mg/kg of the test compound was administered to BALB/c mice via the tail vein, the dose volume being 0.1 mL/10 g. At 5 min, 15 min, 30 min, 1 h, 2 h, 4 h after administration, blood samples were collected from the orbital venous plexus into heparinized EP tubes (0.6 mL), which were temporarily placed on crushed ice.
The samples were centrifuged at 8000 rpm for 5 min. 15 μL of upper plasma were transferred to a 96-well plate. 150 μL of methanol:acetonitrile (v/v=1:1) (containing 20 ng/mL tolbutamide) was added to 15 μL of plasma, shaken for 3 min, and centrifuged at 4500 rpm for 5 min. 100 μL of supernatant was taken to a 2 mL deep well plate. 100 μL of diluent (pure water) was added. The samples were shaken for 3 min, and centrifuged at 4500 rpm for 5 min. 180 μL of the supernatant was transferred to the sample plate. The content of the compound in the supernatant sample was analyzed by LC-MS/MS, and various pharmacokinetic parameters were calculated with WinNonlin software.

Acinetobacter baumannii = assay: In vitro antibacterial activity, minimum inhibitory concentration (MIC); type: cell-based
Procedure: (§1) Compounds: The compounds prepared in the above examples and comparative examples. All test compounds were dissolved and diluted with DMSO, and the final concentrations were prepared as 64, 32, 16, 8, 4, 2, 1, 0.5, 0.25, 0.125, 0.0625 μg/mL in the experiment.
(§2) Bacterial strains: 6 strains of Acinetobacter baumannii (codenames: HDBAB-YK4, HDBAB-YK7, HDBAB-YK12, HDBAB-YK16, HDBAB_OXA_7, ATCC 19606), 2 strains of Pseudomonas aeruginosa (codenames: HDBPA-YK9, HDBPA)-YK15), 1 strain of Escherichia coli (codename: CLB30048), all provided by HD Biosciences (Shanghai) Co., Ltd.
(§3) Medium: Trypticase soy agar (TSA) (BD BBL 211043), and Cation-adjusted Mueller Hinton broth (CAMHB) (BD BBL212322).
(§4) The bacteria used for the minimum inhibitory concentration (MIC) test were stored frozen at −80° C., and needed 2 days to recover before use. A small amount of frozen bacteria was scraped with a sterile inoculation loop for streak inoculation on a TSA solid medium petri dish. The dish was placed in an ordinary incubator at 35±2° C. for 20-24 hours. 5-10 Colonies with similar morphologies were picked from the above-mentioned petri dish with a sterile inoculating loop for streak inoculation again on a TSA solid medium petri dish. The dish was then placed in an ordinary incubator at 35±2° C. for 20-24 hours.
(§5) 1.02×CAMHB liquid medium was taken out from a 4° C. refrigerator and placed at room temperature for preheating. 5-10 Individual bacterial colonies were picked from the solid petri dish of the above Section 2.1 and re-suspended in 500 μL of 0.9% NaCl, and then the OD600 was adjusted to 0.1-0.15 with a spectrophotometer. Then the bacteria were diluted 400 times with 1.02×CAMHB (two-step dilution method: firstly diluting 10 times, then diluting 40 times).
(§6) The number of inoculated bacteria can be obtained by counting the colonies on the petri dish (see Section 2.4).
(§7) One compound was arranged in each row of a 96-well test plate: the highest test concentration for each compound was 64 μg/mL, which was diluted by a factor of two.
(§8) Growth control (GC): 1.02×CAMHB and dimethyl sulfoxide (DMSO) containing bacterial inoculum, no compound.
(§9) Sterile control (SC): Containing 1.02×CAMHB and DMSO, no compound.
(§10) All test compounds were dissolved and diluted with DMSO. 50 μL of 3.2 mg/mL of each test compound was transferred to the initial well (A1-H1) of the dilution plate, and then 25 μL of DMSO was transferred to other wells. The test compounds were sequentially diluted by a factor of 2 from column 1 to column 11 (i.e. drawing 25 μL of test compound from column 1 to column 2 and mixing well, and then drawing 25 μL of test compound from column 2 to column 3 and mixing well, and then drawing 25 μL of test compound from column 3 to column 4 and mixing well, and so on, until diluting to column 11).
(§11) 2 μL of the compound was transferred from the compound plate to the corresponding well of the test plate. Meanwhile, 2 μL of 100% DMSO was transferred to the compound-free wells (the GC and SC wells).
(§12) 98 μL of the corresponding bacterial inoculum was added to the test plate (except for the SC well).
(§13) 98 μL of 1.02×CAMHB medium was added to the SC well of the test plate.
(§14) After the system was added, the test plate was covered with a sterile lid, centrifuged at 800 rpm for 30 seconds, then shaken on a plate shaker at 400 rpm for 1 minute for mixing well, and then placed in an incubator at 35±2° C. for 20 hours.
(§15) The inoculated bacteria were gradient diluted by 10 folds with the liquid medium, from 10^−1 to 10^−3. 100 μL of the above bacterial dilution was spread evenly on a TSA petri dish, 2 replicates for each dilution. After the medium was absorbed by TSA for 10 minutes, the petri dishes were reversed and incubated in an incubator at 35±2° C. for 24 hours.
(§16) A compound management system was turned on to check whether the barcode and compound arrangement of each test plate were correct. […]

Pseudomonas aeruginosa = assay: as above; type: cell-based
Procedure: as §1, §2, §3, §4, §5, §6, §7, §8, §9, §10, §11, §12, §13, §14, §15, §16

Escherichia coli = assay: as above; type: cell-based
Procedure: as §1, §2, §3, §4, §5, §6, §7, §8, §9, §10, §11, §12, §13, §14, §15, §16

[2] = system: Acinetobacter baumannii, Pseudomonas aeruginosa, and Escherichia coli; assay: In vitro antibacterial activity, summary statements over all strains of Experimental Example 1; type: cell-based; conditions: method of Experimental Example 1
Procedure: as §1, §2
The minimum inhibitory concentration (MIC) of each compound was recorded according to the guidelines of the Clinical and Laboratory Standards Institute.

CC1(C)[C@H](NC(=O)/C(=N\O[C@@H](COc2ccc(-c3cn4[n+](c3)CC(OCCCN)C4)cc2)C(=O)O)c2csc(N)n2)C(=O)N1OS(=O)(=O)[O-] (stereo partly drawn) [Example 3, (3S)-3-((Z)-2-(((1S)-2-(4-(2-(3-aminopropoxy)-2,3-dihydro-1H-pyrazolo[1,2-a]pyrazol-4-ium-6-yl)phenoxy)-1-carboxyethoxy)imino)-2-(2-aminothiazol-4-yl)acetylamino)-2,2-dimethyl-4-oxoazetidin-1-yl Sulfate]
Vd ([1]; read-out: VSS): 0.26 L/kg | Vd ([1]; read-out: Vd): 0.35 L/kg | AUC(0-inf) [1]: 2310 ng·h/mL | AUC(0-t) [1]: 2300 ng·h/mL | C0 [1]: 8650 ng/mL | clearance [1]: 14.5 mL/min/kg | half-life [1]: 16.8 min | MIC (Acinetobacter baumannii; ATCC19606, strain ATCC 19606): 2 µg/mL | MIC (Acinetobacter baumannii; strain HDBAB-YK4): 2 µg/mL | MIC (Acinetobacter baumannii; strain HDBAB-YK7): 2 µg/mL | MIC (Acinetobacter baumannii; strain HDBAB-YK12): 2 µg/mL | MIC (Acinetobacter baumannii; strain HDBAB-YK16): 16 µg/mL | MIC (Acinetobacter baumannii; strain HDBAB_OXA_7): 8 µg/mL | MIC (Pseudomonas aeruginosa; strain HDBPA-YK9): 16 µg/mL | MIC (Pseudomonas aeruginosa; strain HDBPA-YK15): > 64 µg/mL | MIC (Escherichia coli; strain CLB30048, read-out: MIC): 4 µg/mL | in vitro antibacterial activity (in words) [2]: excellent antibacterial activity

CC(CN)Nc1ccc(-c2ccc(OC[C@H](O/N=C(\C(=O)N[C@@H]3C(=O)N(OS(=O)(=O)[O-])C3(C)C)c3csc(N)n3)C(=O)O)cc2)c[n+]1C (stereo partly drawn) [Compound A, reference compound]
Vd ([1]; read-out: VSS): 0.4 L/kg | AUC(0-inf) [1]: 2800 ng·h/mL | AUC(0-t) [1]: 2140 ng·h/mL | C0 [1]: 5920 ng/mL | clearance [1]: 265 mL/min/kg | half-life [1]: 18 min | MIC (Acinetobacter baumannii; strain HDBAB-YK4): 16 µg/mL (≈ 22.6 µM) | MIC (Acinetobacter baumannii; strain HDBAB-YK7): 8 µg/mL (≈ 11.3 µM) | MIC (Acinetobacter baumannii; strain HDBAB-YK12): 4 µg/mL (≈ 5.66 µM) | MIC (Acinetobacter baumannii; strain HDBAB-YK16): 16 µg/mL (≈ 22.6 µM) | MIC (Acinetobacter baumannii; strain HDBAB_OXA_7): 16 µg/mL (≈ 22.6 µM) | MIC (Pseudomonas aeruginosa; strain HDBPA-YK9): 16 µg/mL (≈ 22.6 µM) | MIC (Pseudomonas aeruginosa; strain HDBPA-YK15): 64 µg/mL (≈ 90.6 µM) | MIC (Escherichia coli; strain CLB30048, read-out: MIC): 8 µg/mL (≈ 11.3 µM) | in vitro antibacterial activity (in words) [2]: significantly weaker

CC1(C)[C@H](NC(=O)/C(=N\O[C@@H](COc2ccc(NC(=O)c3cn(CCCN)[n+](CC4CNC4)c3)cc2)C(=O)O)c2csc(N)n2)C(=O)N1OS(=O)(=O)[O-] [Example 2, (S)-3-((Z)-2-(((S)-2-(4-(1-(3-aminopropyl)-2-(azetidin-3-ylmethyl)-1H-pyrazol-2-ium-4-carboxamido)phenoxy)-1-carboxyethoxy)imino)-2-(2-aminothiazol-4-yl)acetylamido)-2,2-dimethyl-4-oxoazetidin-1-yl Sulfate]
MIC (Acinetobacter baumannii; ATCC19606, strain ATCC 19606): 2 µg/mL | MIC (Acinetobacter baumannii; strain HDBAB-YK4): 2 µg/mL | MIC (Acinetobacter baumannii; strain HDBAB-YK7): 0.625 µg/mL | MIC (Acinetobacter baumannii; strain HDBAB-YK12): 2 µg/mL | MIC (Acinetobacter baumannii; strain HDBAB-YK16): 8 µg/mL | MIC (Acinetobacter baumannii; strain HDBAB_OXA_7): 4 µg/mL | MIC (Pseudomonas aeruginosa; strain HDBPA-YK9): 4 µg/mL | MIC (Pseudomonas aeruginosa; strain HDBPA-YK15): > 64 µg/mL | MIC (Escherichia coli): 1 µg/mL | in vitro antibacterial activity (in words) [2]: excellent antibacterial activity
